Results taken from patent US8580768B2, “Cannabinoid receptor antagonists-inverse agonists useful for treating metabolic disorders, including obesity and diabetes” (Jenrin Discovery, Inc., priority 2010, dated 2013).

molecular target: T1, human cannabinoid CB1 receptor (Homo sapiens, UniProt P21554); assay: CB1 receptor affinity, [3H]CP-55,940 radioligand displacement on CHO cell membrane preparations; format: binding; conditions: not given
T1 construct: expressed in transfected cells; host or cells: Chinese hamster ovary (CHO) cells, stably transfected; membrane preparations
T1 sequence (P21554 whole entry): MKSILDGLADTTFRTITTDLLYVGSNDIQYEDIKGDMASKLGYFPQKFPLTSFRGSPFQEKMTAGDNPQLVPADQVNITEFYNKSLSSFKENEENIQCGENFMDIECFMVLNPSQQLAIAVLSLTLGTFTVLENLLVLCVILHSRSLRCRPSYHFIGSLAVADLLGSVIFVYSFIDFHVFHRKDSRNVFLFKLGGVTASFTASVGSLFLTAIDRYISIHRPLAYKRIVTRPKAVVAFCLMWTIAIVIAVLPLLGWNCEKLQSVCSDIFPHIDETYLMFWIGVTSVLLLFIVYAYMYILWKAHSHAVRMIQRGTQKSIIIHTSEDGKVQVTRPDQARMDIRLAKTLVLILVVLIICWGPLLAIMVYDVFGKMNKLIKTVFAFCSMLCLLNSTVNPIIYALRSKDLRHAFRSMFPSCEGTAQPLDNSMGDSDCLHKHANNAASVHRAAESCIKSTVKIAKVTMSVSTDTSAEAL
Procedure: CB1 receptor affinities can be determined using membrane preparations of Chinese hamster ovary (CHO) cells in which the human cannabinoid CB1 receptor is stably transfected (Biochem J. 1991, 279, 129-134) in conjunction with [3H]CP-55,940 as radioligand. After incubation of a freshly prepared cell membrane preparation with the [3H]-radioligand, with or without addition of test compound, separation of bound and free ligand is performed by filtration over glass fiber filters. Radioactivity on the filter is measured by liquid scintillation counting. The IC50 values can be determined from at least three independent measurements.
The CB1 IC50 values for tested compounds are as follows.

Compound | IC50 [nM]
CCOP(=O)(OCC)C(C)NC(=NS(=O)(=O)c1ccc(Cl)cc1)N1CC(c2ccccc2)C(c2ccc(Cl)cc2)=N1 (stereo not shown) [compound 28] | 1000 to 10000

same assay, conditions: read-out: CB1 IC50

IC50 [nM] | Compound
< 100 | COc1ccc(C2=NN(C(=NS(=O)(=O)c3ccc(Cl)cc3)NC(C)C(N)=O)CC2c2ccccc2)cc1 (stereo not shown) [compound 1]
< 100 | NC(=O)C(CO)NC(=NS(=O)(=O)c1ccc(Cl)cc1)N1CC(c2ccccc2)C(c2ccc(Cl)cc2)=N1 (stereo not shown) [compound 2]
< 100 | NC(CNC(=NS(=O)(=O)c1ccc(Cl)cc1)N1CC(c2ccccc2)C(c2ccc(Cl)cc2)=N1)=NO (stereo not shown) [compound 6]
< 100 | CC(O)C(NC(=NS(=O)(=O)c1ccc(Cl)cc1)N1CC(c2ccccc2)C(c2ccc(Cl)cc2)=N1)C(N)=O (stereo not shown) [compound 7]
< 100 | NC(CCNC(=NS(=O)(=O)c1ccc(Cl)cc1)N1CC(c2ccccc2)C(c2ccc(Cl)cc2)=N1)=NO (stereo not shown) [compound 8]
< 100 | CC(O)C(NC(=NS(=O)(=O)c1ccc(Cl)cc1)N1CC(c2ccccc2)C(c2ccc(Cl)cc2)=N1)C(=O)NC(CO)C(N)=O (stereo not shown) [compound 11]
< 100 | CC(O)C(NC(=NS(=O)(=O)c1cccc(C#N)c1)N1CC(c2ccccc2)C(c2ccc(Cl)cc2)=N1)C(N)=O (stereo not shown) [compound 12]
< 100 | CC(O)C(NC(=NS(=O)(=O)c1cccc(C(=N)N)c1)N1CC(c2ccccc2)C(c2ccc(Cl)cc2)=N1)C(N)=O (stereo not shown) [compound 13]
< 100 | CC(O)C(NC(=NS(=O)(=O)c1ccc(Cl)cc1)N1CC(c2ccccc2)C(c2ccc(Cl)cc2)=N1)C(=O)NCCS(N)(=O)=O (stereo not shown) [compound 25]

Continued, compound first:

Compound | IC50 [nM]
NS(=O)(=O)CCNC(=NS(=O)(=O)c1ccc(Cl)cc1)N1CC(c2ccccc2)C(c2ccc(Cl)cc2)=N1 (stereo not shown) [compound 3] | < 100
CC(C)C(NC(=NS(=O)(=O)c1cccc(C(N)=O)c1)N1CC(c2ccccc2)C(c2ccc(Cl)cc2)=N1)C(N)=O (stereo not shown) [compound 4] | 100 to 1000
CC(C)C(NC(=NS(=O)(=O)c1cccc(C#N)c1)N1CC(c2ccccc2)C(c2ccc(Cl)cc2)=N1)C(N)=O (stereo not shown) [compound 5] | < 100
CC(C)C(NC(=NS(=O)(=O)c1cccc(C(=N)N)c1)N1CC(c2ccccc2)C(c2ccc(Cl)cc2)=N1)C(N)=O (stereo not shown) [compound 9] | 100 to 1000
COc1cccc(S(=O)(=O)N=C(NC2(C(N)=O)CCC2)N2CC(c3ccccc3)C(c3ccc(Cl)cc3)=N2)c1 (stereo not shown) [compound 10] | < 100
COc1cccc(S(=O)(=O)N=C(NCCS(N)(=O)=O)N2CC(c3ccccc3)C(c3ccc(Cl)cc3)=N2)c1 (stereo not shown) [compound 14] | < 100
N#Cc1cccc(S(=O)(=O)N=C(NCCS(N)(=O)=O)N2CC(c3ccccc3)C(c3ccc(Cl)cc3)=N2)c1 (stereo not shown) [compound 15] | < 100
CC(NC(=NS(=O)(=O)c1cccc(C#N)c1)N1CC(c2ccccc2)C(c2ccc(Cl)cc2)=N1)C(N)=O (stereo not shown) [compound 16] | < 100
N#Cc1cccc(S(=O)(=O)N=C(NC2(C(N)=O)CCC2)N2CC(c3ccccc3)C(c3ccc(Cl)cc3)=N2)c1 (stereo not shown) [compound 17] | < 100
COc1cccc(S(=O)(=O)N=C(NC(C)C(N)=O)N2CC(c3ccccc3)C(c3ccc(Cl)cc3)=N2)c1 (stereo not shown) [compound 18] | < 100
COc1ccc(C2=NN(C(=NS(=O)(=O)c3ccc(Cl)cc3)NCCS(N)(=O)=O)CC2c2ccccc2)cc1 (stereo not shown) [compound 20] | < 100
COc1cccc(S(=O)(=O)N=C(NC(C(N)=O)C2CC2)N2CC(c3ccccc3)C(c3ccc(Cl)cc3)=N2)c1 (stereo not shown) [compound 21] | 100 to 1000
N#Cc1cccc(S(=O)(=O)N=C(NC(C(N)=O)C2CCC2)N2CC(c3ccccc3)C(c3ccc(Cl)cc3)=N2)c1 (stereo not shown) [compound 22] | < 100
NS(=O)(=O)CCNC(=O)CNC(=NS(=O)(=O)c1ccc(Cl)cc1)N1CC(c2ccccc2)C(c2ccc(Cl)cc2)=N1 (stereo not shown) [compound 23] | < 100
COC(=O)C=CCNC(=NS(=O)(=O)c1ccc(Cl)cc1)N1CC(c2ccccc2)C(c2ccc(Cl)cc2)=N1 (stereo not shown) [compound 24] | < 100
NS(=O)(=O)CCNC(=O)C(CO)NC(=NS(=O)(=O)c1ccc(Cl)cc1)N1CC(c2ccccc2)C(c2ccc(Cl)cc2)=N1 (stereo not shown) [compound 26] | < 100
NC(=O)Cc1csc(NC(=NS(=O)(=O)c2ccc(Cl)cc2)N2CC(c3ccccc3)C(c3ccc(Cl)cc3)=N2)n1 (stereo not shown) [compound 27] | 1000 to 10000

system: not given; assay: not given; conditions: type 2 diabetes patients not on other anti-diabetic medications; six months of treatment; baseline value 7.9; placebo reduction 0.3%; cited from earlier work

Compound | HbA1c levels lowered [%]
Cc1c(C(=O)NN2CCCCC2)nn(-c2ccc(Cl)cc2Cl)c1-c1ccc(Cl)cc1 [rimonabant] | 0.8
